Results published in PMC11942486, “The Impact of a Quinone Scaffold on Thermo-TRPs Modulation by Dimethylheptyl Phytocannabinoids” (International Journal of Molecular Sciences, 2025).
Where two headings read alike, the source gives them in different places.

Key:
Format in all cases: cell-based
human TRPV1 = molecular target: T1, human TRPV1 (Homo sapiens, UniProt Q8NER1); assay: Thermo-TRP assay: [Ca2+]i elevation (Fluo-4) in HEK-293 cells transfected with TRPV1
T1 construct: expressed in transfected cells
Protocol: (§1) The compounds were tested on HEK-293 cells either stably transfected with rat TRPA1, TRPV2, TRPV3, TRPV4, TRPM8 or human TRPV1 or not-transfected, by performing a continuous monitoring of the intracellular calcium ([Ca^2+]i) elevation during the experiments, following the protocol already described. […] Cell fluorescence before and after the addition of various concentrations of tested compounds was measured, normalizing the effects against the response to ionomycin (IM, 4 μM). The effect on [Ca^2+]i in non-transfected HEK-293 cells were used as the baseline and subtracted from the values obtained from the transfected ones. The efficacy of the agonists was determined by normalizing their effect to the maximum Ca^2+ influx effect on [Ca^2+]i observed with application of 4μM ionomycin. The effects of TRPA1 agonists are expressed as a percentage of the effect obtained with 100 μM allyl isothiocyanate (AITC). In the TRPV3 assay, rat TRPV3-expressing HEK-293 cells were first sensitized with the structurally unrelated agonist 2-aminoethoxydiphenyl borate (100 μM). For the TRPM8, the experiments were carried out at 22 °C. The potency (EC50 values) is determined as the concentration required to produce half-maximal increases in [Ca^2+]i. […] A dose-response curve fitting (sigmoidal dose-response variable slope) and parameter estimation were performed with Graph-Pad Prism 8 (GraphPad Software Inc., San Diego, CA, USA). All determinations were performed at least in triplicate.

rat TRPA1 = molecular target: T2, rat TRPA1 (Rattus norvegicus, UniProt Q6RI86); assay: Thermo-TRP assay: [Ca2+]i elevation (Fluo-4) in HEK-293 cells transfected with TRPA1; settings: for TRPA1 Efficacy (% AITC 100 μM): agonist effect as % of AITC 100 μM, HEK-293 rat TRPA1; for IC50: antagonist/desensitizing, added 5 min before AITC 100 μM, read-out: IC50 TRPA1; for EC50: half-maximal increase in [Ca2+]i, read-out: TRPA1 Potency EC50
T2 construct: expressed in transfected cells
Protocol: as §1

rat TRPV4 = molecular target: T3, rat TRPV4 (Rattus norvegicus, UniProt Q9ERZ8); assay: Thermo-TRP assay: [Ca2+]i elevation (Fluo-4) in HEK-293 cells transfected with TRPV4
T3 construct: expressed in transfected cells
Protocol: as §1

rat TRPV2 = molecular target: T4, rat TRPV2 (Rattus norvegicus, UniProt Q9WUD2); assay: Thermo-TRP assay: [Ca2+]i elevation (Fluo-4) in HEK-293 cells transfected with TRPV2; settings: for TRPV2 Efficacy (% Ionomycin 4 μM): agonist effect as % of ionomycin 4 μM; for EC50: half-maximal increase in [Ca2+]i, read-out: TRPV2 Potency EC50; for IC50: vs CBD 2 μM
T4 construct: expressed in transfected cells
T4 sequence (Q9WUD2 1-761): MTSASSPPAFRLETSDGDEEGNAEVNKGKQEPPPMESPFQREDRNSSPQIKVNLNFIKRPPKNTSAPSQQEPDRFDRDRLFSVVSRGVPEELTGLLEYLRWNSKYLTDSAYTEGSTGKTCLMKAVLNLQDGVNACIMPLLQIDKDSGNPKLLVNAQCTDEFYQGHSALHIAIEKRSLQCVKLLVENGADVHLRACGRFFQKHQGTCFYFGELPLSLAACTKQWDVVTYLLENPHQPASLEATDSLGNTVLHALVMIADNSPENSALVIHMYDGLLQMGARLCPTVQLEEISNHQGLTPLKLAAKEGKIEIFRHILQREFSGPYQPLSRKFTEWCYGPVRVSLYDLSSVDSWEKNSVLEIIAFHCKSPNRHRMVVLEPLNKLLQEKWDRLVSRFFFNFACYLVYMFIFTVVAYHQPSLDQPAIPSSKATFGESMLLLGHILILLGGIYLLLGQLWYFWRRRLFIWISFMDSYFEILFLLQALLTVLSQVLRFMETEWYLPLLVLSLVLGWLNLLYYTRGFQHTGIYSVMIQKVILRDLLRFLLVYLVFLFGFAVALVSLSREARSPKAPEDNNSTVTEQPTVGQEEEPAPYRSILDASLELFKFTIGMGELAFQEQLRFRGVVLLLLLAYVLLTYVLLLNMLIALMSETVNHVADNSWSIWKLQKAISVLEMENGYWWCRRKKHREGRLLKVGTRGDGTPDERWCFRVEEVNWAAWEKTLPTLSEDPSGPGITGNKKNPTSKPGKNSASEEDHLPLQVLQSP
Protocol: The compounds were tested on HEK-293 cells either stably transfected with rat TRPA1, TRPV2, TRPV3, TRPV4, TRPM8 or human TRPV1 or not-transfected, by performing a continuous monitoring of the intracellular calcium ([Ca^2+]i) elevation during the experiments, following the protocol already described. On the day of the experiment, the cells were loaded for 1 h in the dark at room temperature with the fluorescent probe Fluo-4 AM (4 μM in DMSO containing 0.02% Pluronic F-127). The cells were rinsed, resuspended in Tyrode’s solution (145 mM NaCl, 2.5 mM KCl, 1.5 mM CaCl2, 1.2 mM MgCl2, 10 mM D-glucose, and 10 mM HEPES, pH 7.4), and transferred to a quartz cuvette of a spectrofluorimeter (PerkinElmer LS50B; λEX = 488 nm, λEM = 516 nm) equipped with a PTP-1 fluorescence Peltier system (PerkinElmer Life and Analytical Sciences, Waltham, MA, USA) under continuous stirring. Cell fluorescence before and after the addition of various concentrations of tested compounds was measured, normalizing the effects against the response to ionomycin (IM, 4 μM). The effect on [Ca^2+]i in non-transfected HEK-293 cells were used as the baseline and subtracted from the values obtained from the transfected ones. The efficacy of the agonists was determined by normalizing their effect to the maximum Ca^2+ influx effect on [Ca^2+]i observed with application of 4μM ionomycin. The effects of TRPA1 agonists are expressed as a percentage of the effect obtained with 100 μM allyl isothiocyanate (AITC). In the TRPV3 assay, rat TRPV3-expressing HEK-293 cells were first sensitized with the structurally unrelated agonist 2-aminoethoxydiphenyl borate (100 μM). For the TRPM8, the experiments were carried out at 22 °C. The potency (EC50 values) is determined as the concentration required to produce half-maximal increases in [Ca^2+]i. Antagonist/desensitizing behavior is evaluated against the agonist of the TRP analyzed by adding the compounds directly in the quartz cuvette 5 min before stimulation of cells with the agonist (allylisothiocyanate (100 μM) for TRPA1, capsaicin (0.1 μM) for TRPV1, cannabidiol (2 μM) for TRPV2, thymol (100 μM) for TRPV3, GSK1016790A (10 nM) for TRPV4, and icilin (0.25 μM) for TRPM8). The IC50 value is expressed as the concentration exerting a half-maximal inhibition of the agonist effect, taking as 100% the effect on [Ca^2+]i exerted by the agonist alone. A dose-response curve fitting (sigmoidal dose-response variable slope) and parameter estimation were performed with Graph-Pad Prism 8 (GraphPad Software Inc., San Diego, CA, USA). All determinations were performed at least in triplicate.

[1] = vs Capsaicin 0.1 μM, read-out: IC50 TRPV1
[2] = vs GSK1016790A 10 nM, read-out: IC50 TRPV4

T1 sequence (Q8NER1 whole entry): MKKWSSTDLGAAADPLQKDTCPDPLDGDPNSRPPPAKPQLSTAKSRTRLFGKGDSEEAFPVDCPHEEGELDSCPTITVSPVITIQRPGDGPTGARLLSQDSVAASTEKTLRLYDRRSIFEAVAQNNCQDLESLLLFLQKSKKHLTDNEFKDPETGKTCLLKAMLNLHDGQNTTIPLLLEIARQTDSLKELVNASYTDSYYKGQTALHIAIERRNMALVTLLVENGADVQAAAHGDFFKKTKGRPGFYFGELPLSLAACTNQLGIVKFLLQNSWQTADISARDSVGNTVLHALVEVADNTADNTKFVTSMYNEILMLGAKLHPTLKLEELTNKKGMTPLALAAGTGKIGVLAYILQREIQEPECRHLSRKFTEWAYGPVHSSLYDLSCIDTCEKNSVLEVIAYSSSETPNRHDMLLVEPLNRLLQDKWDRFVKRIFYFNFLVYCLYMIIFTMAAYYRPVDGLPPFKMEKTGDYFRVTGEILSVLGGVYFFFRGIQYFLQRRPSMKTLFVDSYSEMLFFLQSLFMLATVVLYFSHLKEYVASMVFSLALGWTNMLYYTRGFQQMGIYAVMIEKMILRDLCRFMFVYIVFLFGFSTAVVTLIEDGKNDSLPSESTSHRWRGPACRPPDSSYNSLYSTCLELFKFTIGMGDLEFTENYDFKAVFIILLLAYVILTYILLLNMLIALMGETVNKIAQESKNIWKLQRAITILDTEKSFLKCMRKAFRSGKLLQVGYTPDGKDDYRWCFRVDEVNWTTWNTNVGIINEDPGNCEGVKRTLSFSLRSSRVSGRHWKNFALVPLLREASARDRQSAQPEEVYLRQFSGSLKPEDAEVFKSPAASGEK
T3 sequence (Q9ERZ8 whole entry): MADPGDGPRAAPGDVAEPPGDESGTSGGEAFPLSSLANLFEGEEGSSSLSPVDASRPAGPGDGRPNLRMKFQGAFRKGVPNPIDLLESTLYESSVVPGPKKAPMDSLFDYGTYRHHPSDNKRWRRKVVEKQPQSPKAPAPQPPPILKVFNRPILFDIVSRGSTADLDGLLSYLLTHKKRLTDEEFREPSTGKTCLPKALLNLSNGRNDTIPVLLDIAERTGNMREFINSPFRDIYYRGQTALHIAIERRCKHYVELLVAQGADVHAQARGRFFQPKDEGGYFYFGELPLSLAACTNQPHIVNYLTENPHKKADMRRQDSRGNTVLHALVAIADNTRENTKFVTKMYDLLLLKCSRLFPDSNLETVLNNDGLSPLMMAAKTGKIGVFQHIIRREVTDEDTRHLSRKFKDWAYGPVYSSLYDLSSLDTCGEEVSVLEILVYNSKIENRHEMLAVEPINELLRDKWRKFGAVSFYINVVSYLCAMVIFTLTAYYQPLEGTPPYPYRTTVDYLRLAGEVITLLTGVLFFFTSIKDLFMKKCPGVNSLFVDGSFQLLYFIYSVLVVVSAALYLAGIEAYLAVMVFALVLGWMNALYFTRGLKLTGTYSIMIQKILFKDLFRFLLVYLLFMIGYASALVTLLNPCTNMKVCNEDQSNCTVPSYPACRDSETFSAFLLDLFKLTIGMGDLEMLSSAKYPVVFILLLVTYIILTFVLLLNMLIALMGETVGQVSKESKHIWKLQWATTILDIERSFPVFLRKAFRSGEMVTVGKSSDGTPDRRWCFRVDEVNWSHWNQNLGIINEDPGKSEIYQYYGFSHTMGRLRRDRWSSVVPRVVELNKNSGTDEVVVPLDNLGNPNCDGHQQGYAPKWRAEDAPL
T2 sequence (Q6RI86 whole entry): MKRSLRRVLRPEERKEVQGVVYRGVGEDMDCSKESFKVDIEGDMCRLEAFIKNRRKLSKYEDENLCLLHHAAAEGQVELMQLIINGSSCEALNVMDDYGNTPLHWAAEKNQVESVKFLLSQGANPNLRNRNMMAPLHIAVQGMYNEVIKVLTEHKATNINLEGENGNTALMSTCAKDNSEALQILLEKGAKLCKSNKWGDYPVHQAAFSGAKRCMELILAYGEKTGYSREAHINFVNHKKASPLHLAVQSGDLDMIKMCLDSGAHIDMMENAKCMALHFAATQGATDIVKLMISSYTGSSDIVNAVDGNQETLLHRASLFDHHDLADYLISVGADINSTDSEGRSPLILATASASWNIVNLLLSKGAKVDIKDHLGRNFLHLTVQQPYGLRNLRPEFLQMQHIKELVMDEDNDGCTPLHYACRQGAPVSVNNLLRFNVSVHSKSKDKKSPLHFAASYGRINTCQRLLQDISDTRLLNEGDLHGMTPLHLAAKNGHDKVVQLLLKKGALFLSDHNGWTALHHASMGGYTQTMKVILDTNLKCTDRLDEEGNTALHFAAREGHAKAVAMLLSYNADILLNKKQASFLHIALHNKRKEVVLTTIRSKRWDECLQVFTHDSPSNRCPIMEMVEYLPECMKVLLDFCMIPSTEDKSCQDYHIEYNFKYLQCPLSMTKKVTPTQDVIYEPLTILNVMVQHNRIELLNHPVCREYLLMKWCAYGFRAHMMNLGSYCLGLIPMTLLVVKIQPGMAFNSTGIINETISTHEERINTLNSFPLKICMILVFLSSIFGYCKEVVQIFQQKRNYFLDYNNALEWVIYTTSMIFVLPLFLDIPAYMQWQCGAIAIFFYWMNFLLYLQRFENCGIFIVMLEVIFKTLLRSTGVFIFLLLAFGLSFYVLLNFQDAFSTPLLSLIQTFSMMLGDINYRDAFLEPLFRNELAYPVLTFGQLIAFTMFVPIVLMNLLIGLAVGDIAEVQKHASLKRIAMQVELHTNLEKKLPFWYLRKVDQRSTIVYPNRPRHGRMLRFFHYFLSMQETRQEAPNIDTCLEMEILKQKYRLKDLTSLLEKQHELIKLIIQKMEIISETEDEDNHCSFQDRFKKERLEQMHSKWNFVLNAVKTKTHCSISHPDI

Row | SMILES | IC50 (human TRPV1; [1]) | TRPA1 Efficacy (% AITC 100 μM) (rat TRPA1) | IC50 (rat TRPA1) | EC50 (rat TRPA1) | IC50 (rat TRPV4; [2]) | TRPV2 Efficacy (% Ionomycin 4 μM) (rat TRPV2) | EC50 (rat TRPV2) | IC50 (rat TRPV2) | IC50 (human TRPV1) | IC50 (rat TRPV4)
1 | C=C(C)[C@@H]1CCC(C)=C[C@H]1C1=C(O)C(=O)C(C(C)(C)CCCCCC)=CC1=O [5b] | > 100 µM | 120.4 ± 3.0% | 3500 ± 200 nM | 5200 ± 800 nM | > 100 µM | 30.6 ± 6.5% | 12.2 ± 9.7 µM | 5.45 ± 0.5 µM |  | 
2 | CCCCCCC(C)(C)C1=CC2=C(C(=O)C1=O)[C@@H]1CC(C)=CC[C@H]1C(C)(C)O2 [6b] |  | 147.3 ± 7.3% | 1800 ± 300 nM | 4400 ± 1250 nM |  | 78.1 ± 4.0% | > 50 µM | 8.5 ± 0.5 µM | > 100 µM | > 100 µM
3 | CCCCCCC(C)(C)C1=CC(=O)C(C/C=C(\C)CCC=C(C)C)=C(O)C1=O [7b, p-DMHCBGQ] | > 100 µM | 114.2 ± 4.1% | 1100 ± 100 nM | 1100 ± 200 nM | > 50 µM | 47.8 ± 1.4% | 30.5 ± 3.9 µM | 23.7 ± 2.9 µM |  | 
4 | CCCCCCC(C)(C)C1=CC(=O)C2=C(OC(C)(CCC=C(C)C)C=C2)C1=O (centres unmarked) [8b] | > 100 µM | 111.2 ± 2.1% | 350 ± 20 nM | 190 ± 30 nM | > 100 µM | 31.5 ± 2.9% | > 50 µM | 6.9 ± 0.1 µM |  | 
